Laboratory results published in ChEMBL document CHEMBL1148698, “Chemotherapy of leishmaniasis. Part VII: synthesis and bioevaluation of substituted terpenyl pyrimidines” (2007).
Activity calls are given as the source filed them. The rule behind the calls is not given here.

Tested on: Leishmania donovani
Assay: Antileishmanial activity against Leishmania donovani HOM/IN/80DD8 in hamster at 50 mg/kg, ip after 7 days
Settings: for inhibition in vivo at 50 mg/kg: HOM/IN/80DD8, ip, 168 h

CC1=C(/C=C/c2cc(NC3CCCCC3)nc(N)n2)C(C)(C)CCC1 was tested, and the Activity was “inactive”.
In the case of CC1=C(/C=C/c2cc(NCc3ccccc3)nc(N)n2)C(C)(C)CCC1, the Activity is reported as “inactive”.
CCN(c1ccccc1)c1cc(/C=C/C2=C(C)CCCC2(C)C)nc(N)n1 gave an inhibition in vivo at 50 mg/kg of 40%.
Work on CC1=C(/C=C/c2cc(Nc3ccccc3)nc(N)n2)C(C)(C)CCC1 yielded an inhibition in vivo at 50 mg/kg of 31%.
For CC1=C(/C=C/c2cc(N3CCN(c4ccccc4)CC3)nc(N)n2)C(C)(C)CCC1, the Activity was “inactive”.
With CC1=C(/C=C/c2cc(N3CCCCC3)nc(N)n2)C(C)(C)CCC1 the Activity was “inactive”.
For CC1=C(/C=C/c2cc(N3CCNCC3)nc(N)n2)C(C)(C)CCC1, the Activity was “inactive”.
With CC1=C(/C=C/c2cc(N3CCOCC3)nc(N)n2)C(C)(C)CCC1 the Activity was “inactive”.
With CC1=C(/C=C/c2cc(NN)nc(N)n2)C(C)(C)CCC1 the Activity was “inactive”.
For CC1=C(/C=C/c2cc(Nc3ccc(Cl)cc3)nc(N)n2)C(C)(C)CCC1, the Activity was “inactive”.
In the case of CC1=C(/C=C/c2cc(Nc3cccc(F)c3)nc(N)n2)C(C)(C)CCC1, the Activity is reported as “inactive”.
In the case of COc1ccc(Nc2cc(/C=C/C3=C(C)CCCC3(C)C)nc(N)n2)cc1, the Activity is reported as “inactive”.
In the case of CC1=C(/C=C/c2cc(Nc3ccc(F)cc3)nc(N)n2)C(C)(C)CCC1, the Activity is reported as “inactive”.
For CSc1cc(/C=C/C2=C(C)CCCC2(C)C)nc(N)n1, the inhibition in vivo at 50 mg/kg was 66%.
